These results are taken from patent US8980888B2, “Pyrazole derivative” (Mochida Pharmaceutical Co., Ltd., priority 2013, dated 2015).

Where only a bound is given, the exact number is not on record here.

The target of one assay is T1, Human PDE10 (Homo sapiens, UniProt Q9Y233).
T1 construct: purchased BPA Bioscience (so in the source)
T1 sequence (Q9Y233 whole entry): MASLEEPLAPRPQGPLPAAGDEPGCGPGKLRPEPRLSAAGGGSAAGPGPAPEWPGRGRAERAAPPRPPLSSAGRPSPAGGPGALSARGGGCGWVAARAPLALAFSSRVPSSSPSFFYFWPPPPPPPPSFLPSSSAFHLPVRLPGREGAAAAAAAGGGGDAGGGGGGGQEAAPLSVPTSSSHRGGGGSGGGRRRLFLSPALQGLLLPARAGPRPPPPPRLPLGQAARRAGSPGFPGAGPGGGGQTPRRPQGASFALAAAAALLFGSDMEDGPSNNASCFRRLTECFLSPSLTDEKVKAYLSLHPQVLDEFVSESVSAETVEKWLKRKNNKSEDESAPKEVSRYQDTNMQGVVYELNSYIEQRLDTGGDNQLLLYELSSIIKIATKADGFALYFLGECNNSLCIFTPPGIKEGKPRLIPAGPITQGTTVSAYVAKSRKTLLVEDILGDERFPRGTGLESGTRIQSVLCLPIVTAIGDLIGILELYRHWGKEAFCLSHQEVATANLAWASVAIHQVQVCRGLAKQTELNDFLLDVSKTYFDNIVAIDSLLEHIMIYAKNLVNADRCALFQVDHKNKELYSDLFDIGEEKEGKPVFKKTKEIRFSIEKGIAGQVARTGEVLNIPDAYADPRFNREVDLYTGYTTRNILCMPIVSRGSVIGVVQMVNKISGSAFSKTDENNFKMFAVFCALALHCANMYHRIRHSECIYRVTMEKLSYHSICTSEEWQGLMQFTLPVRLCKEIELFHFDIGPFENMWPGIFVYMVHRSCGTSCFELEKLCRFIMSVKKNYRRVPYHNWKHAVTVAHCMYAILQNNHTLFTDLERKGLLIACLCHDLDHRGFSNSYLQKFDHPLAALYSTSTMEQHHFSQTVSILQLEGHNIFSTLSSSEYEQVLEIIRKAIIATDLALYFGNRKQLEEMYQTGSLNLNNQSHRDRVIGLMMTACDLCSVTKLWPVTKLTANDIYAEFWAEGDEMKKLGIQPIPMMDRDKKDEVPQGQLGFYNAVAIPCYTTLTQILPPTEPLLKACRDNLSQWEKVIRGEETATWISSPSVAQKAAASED
Nature of the assay: Human PDE10 inhibitory effect (IMAP TR-FRET enzyme inhibition assay). In kind it is biochemical. The following applies: PDE10 inhibitory activity, cAMP substrate. The procedure: (Evaluation of Enzyme Inhibitory Activity: Human PDE10 Inhibitory Effect)
IMAP TR-FRET Phosphodiersterase Evaluation Assay Kit (Molecular Device) was used for the measurement. Ten μL of a diluted test compound having each concentration and 5 μL of the enzyme PDE10 (BPA Bioscience) that had been diluted to 2 ng/mL with 1×IMAP Reaction Buffer (prepared with 5× included with the kit, 10 mM Tris-HCl, pH=7.2, 10 mM MgCl2, 0.05% NaN3, and 0.1% BSA) containing 0.1% BSA were added to a 384-well plate (Corning). The obtained mixture was then pre-incubated at room temperature for 5 minutes. Thereafter, 5 μL of cAMP substrate solution which was included with the kit and diluted to 400 nM with 1×IMAP Reaction Buffer containing 0.1% BSA, was added to the reaction solution, and the obtained mixture was reacted at room temperature for 60 minutes. Thereafter, 60 μL of an IMAP TR-FRET Binding solution included with the kit was further added to the reaction solution, and the obtained mixture was then left for 3 hours or more. Subsequently, using ARVO SX (PerkinElmer), the fluorescent intensity of Terbium (Emission=490 nm) and TR-FRET (Emission=520 nm) in the reaction solution were measured at an excitation wavelength of 340 nm, so as to calculate the amount of the generated 5′-AMP. The count of a well to which a solvent had been added instead of the test compound was set at 0%, and the count of a well to which the enzyme PDE10 had not been added was set at 100%. Thus, the inhibitory activity of each test compound was calculated.
The PDE10 inhibitory activity of the test compound was indicated with an IC50 value. […] The test compounds are shown in Table 3 (Table 3-1 and Table 3-2).
As to `Cn1ncc(-c2ncccc2C#N)c1C(=O)NC1CCn2nc(-c3ccccc3)nc2C1` (centres unmarked) [Example 5.27, 4-(3-cyanopyridin-2-yl)-1-methyl-N-(2-phenyl-5,6,7,8-tetrahydro-[1,2,4]triazolo[1,5-a]pyridin-7-yl)-1H-pyrazole-5-carboxamide], the IC50 was 5 to 100 nM. `Cc1nc(-c2cnn(C)c2C(=O)NC2CCn3nc(-c4ccc(F)cc4)nc3C2)c(C)s1` (centres unmarked) [Example 5.28, 4-(2,5-dimethylthiazol-4-yl)-N-(2-(4-fluorophenyl)-5,6,7,8-tetrahydro-[1,2,4]triazolo[1,5-a]pyridin-7-yl)-1-methyl-1H-pyrazole-5-carboxamide] yielded a half-maximal inhibitory concentration (IC50) of 5 to 100 nM. Same read-out and setting: under `CC(=O)c1sc(C)nc1-c1cnn(C)c1C(=O)NC1CCn2nc(-c3ccccc3)nc2C1` (centres unmarked) [Example 5.30, 4-(5-acetyl-2-methylthiazol-4-yl)-1-methyl-N-(2-phenyl-5,6,7,8-tetrahydro-[1,2,4]triazolo[1,5-a]pyridin-7-yl)-1H-pyrazole-5-carboxamide] stands 5 to 100 nM. Still for that read-out and setting: under `Cc1nc(-c2cnn(C)c2C(=O)NC2CCn3nc(-c4ccccc4)nc3C2)c(C(C)O)s1` (centres unmarked) [Example 5.31, 4-(5-(1-hydroxyethyl)-2-methylthiazol-4-yl)-1-methyl-N-(2-phenyl-5,6,7,8-tetrahydro-[1,2,4]triazolo[1,5-a]pyridin-7-yl)-1H-pyrazole-5-carboxamide] stands 5 to 100 nM. The same measure, in the same setting: in the case of `Cn1ncc(-c2nc(C(F)F)cs2)c1C(=O)NC1CCn2nc(-c3ccccc3F)nc2C1` (centres unmarked) [Example 5.32, 4-(4-(difluoromethyl)thiazol-2-yl)-N-(2-(2-fluorophenyl)-5,6,7,8-tetrahydro-[1,2,4]triazolo[1,5-a]pyridin-7-yl)-1-methyl-1H-pyrazole-5-carboxamide] it was 5 to 100 nM; in that of `Cn1ncc(-c2nc(C(F)F)cs2)c1C(=O)NC1CCn2nc(-c3cccc(F)c3)nc2C1` (centres unmarked) [Example 5.33, 4-(4-(difluoromethyl)thiazol-2-yl)-N-(2-(3-fluorophenyl)-5,6,7,8-tetrahydro-[1,2,4]triazolo[1,5-a]pyridin-7-yl)-1-methyl-1H-pyrazole-5-carboxamide], 5 to 100 nM; in that of `Cn1ncc(-c2nc(C(F)F)c(C3CC3)s2)c1C(=O)NC1CCn2nc(-c3ccc(F)cc3)nc2C1` (centres unmarked) [Example 5.35, 4-(5-cyclopropyl-4-(difluoromethyl)thiazol-2-yl)-N-(2-(4-fluorophenyl)-5,6,7,8-tetrahydro-[1,2,4]triazolo[1,5-a]pyridin-7-yl)-1-methyl-1H-pyrazole-5-carboxamide], 5 to 100 nM.

In the case of `Cn1ncc(-c2nc(C(F)F)c(Cl)s2)c1C(=O)NC1CCn2nc(-c3cccc(F)c3)nc2C1` (centres unmarked) [Example 5.37, 4-(5-chloro-4-(difluoromethyl)thiazol-2-yl)-N-(2-(3-fluorophenyl)-5,6,7,8-tetrahydro-[1,2,4]triazolo[1,5-a]pyridin-7-yl)-1-methyl-1H-pyrazole-5-carboxamide], the IC50 was in the range of 5 to 100 nM. In the case of `Cc1nc(-c2cnn(C)c2C(=O)NC2CCn3nc(-c4ccccc4)nc3C2)sc1C1CC1` (centres unmarked) [Example 5.38, 4-(5-cyclopropyl-4-methylthiazol-2-yl)-1-methyl-N-(2-phenyl-5,6,7,8-tetrahydro-[1,2,4]triazolo[1,5-a]pyridin-7-yl)-1H-pyrazole-5-carboxamide], the IC50 lay in the range of 5 to 100 nM. Molecule `Cc1nc(-c2cnn(C)c2C(=O)NC2CCn3nc(-c4ccccc4)nc3C2)c(C)s1` (centres unmarked) [Example 5.39, 4-(2,5-dimethylthiazol-4-yl)-1-methyl-N-(2-phenyl-5,6,7,8-tetrahydro-[1,2,4]triazolo[1,5-a]pyridin-7-yl)-1H-pyrazole-5-carboxamide] gave a concentration for half-maximal inhibition (IC50) of 5 to 100 nM. On the same count and under the same terms, in the case of `Cn1ncc(-c2cccc(C#N)n2)c1C(=O)NC1CCn2nc(-c3ccccc3)nc2C1` (centres unmarked) [Example 5.40, 4-(6-cyanopyridin-2-yl)-1-methyl-N-(2-phenyl-5,6,7,8-tetrahydro-[1,2,4]triazolo[1,5-a]pyridin-7-yl)-1H-pyrazole-5-carboxamide] it was 5 to 100 nM; in that of `Cn1ncc(-c2nc(C#N)cs2)c1C(=O)NC1CCn2nc(-c3ccc(F)cc3)nc2C1` (centres unmarked) [Example 5.41, 4-(4-cyanothiazol-2-yl)-N-(2-(4-fluorophenyl)-5,6,7,8-tetrahydro-[1,2,4]triazolo[1,5-a]pyridin-7-yl)-1-methyl-1H-pyrazole-5-carboxamide], 5 to 100 nM. Molecule `Cn1ncc(-c2nc(C(F)F)c(C3CC3)s2)c1C(=O)NC1CCn2nc(-c3cccc(F)c3)nc2C1` (centres unmarked) [Example 5.42, 4-(5-cyclopropyl-4-(difluoromethyl)thiazol-2-yl)-N-(2-(3-fluorophenyl)-5,6,7,8-tetrahydro-[1,2,4]triazolo[1,5-a]pyridin-7-yl)-1-methyl-1H-pyrazole-5-carboxamide] returned an IC50 of 5 to 100 nM. The molecule `Cc1nc(-c2cnn(C)c2C(=O)NC2CCn3nc(-c4ccc(F)cc4)nc3C2)sc1C1CC1` (centres unmarked) [Example 5.43, 4-(5-cyclopropyl-4-methylthiazol-2-yl)-N-(2-(4-fluorophenyl)-5,6,7,8-tetrahydro-[1,2,4]triazolo[1,5-a]pyridin-7-yl)-1-methyl-1H-pyrazole-5-carboxamide] had a concentration for half-maximal inhibition (IC50) of 5 to 100 nM.

For `CC(=O)c1sc(C)nc1-c1cnn(C)c1C(=O)NC1CCn2nc(-c3cccc(F)c3)nc2C1` (centres unmarked) [Example 5.44, 4-(5-acetyl-2-methylthiazol-4-yl)-N-(2-(3-fluorophenyl)-5,6,7,8-tetrahydro-[1,2,4]triazolo[1,5-a]pyridin-7-yl)-1-methyl-1H-pyrazole-5-carboxamide], the IC50 fell in the range of 5 to 100 nM. Same read-out and setting: under `Cn1ncc(-c2nc(C(F)(F)F)cs2)c1C(=O)NC1CCn2nc(N3CCCC3)nc2C1` (centres unmarked) [Example 5.46, 1-methyl-N-(2-(pyrrolidin-1-yl)-5,6,7,8-tetrahydro-[1,2,4]triazolo[1,5-a]pyridin-7-yl)-4-(4-(trifluoromethyl)thiazol-2-yl)-1H-pyrazole-5-carboxamide] stands less than 5 nM.

Molecule `Cc1cccc(-c2cnn(C)c2C(=O)NC2CCn3nc(N4CCCC4)nc3C2)n1` (centres unmarked) [Example 5.47, 1-methyl-4-(6-methylpyridin-2-yl)-N-(2-(pyrrolidin-1-yl)-5,6,7,8-tetrahydro-[1,2,4]triazolo[1,5-a]pyridin-7-yl)-1H-pyrazole-5-carboxamide] displayed an IC50 of 5 to 100 nM.

The next assay relates to apomorphine-induced stereotypy.
Test: not given
As to conditions: rats; according to U.S. Patent Application No. 2003/0032579; cited from earlier work.
Take `COc1ccc(Cc2nccc3cc(OC)c(OC)cc23)cc1OC` [papaverine]: the apomorphine-induced stereotypy result was “decreases”.

For a further assay, the system named is haloperidol-induced catalepsy.
Test: not given
The following applies: rat; according to U.S. Patent Application No. 2003/0032579; cited from earlier work.
On to `COc1ccc(Cc2nccc3cc(OC)c(OC)cc23)cc1OC` [papaverine], for which the haloperidol-induced catalepsy entry is “increases”.

Another assay relates to dopamine level in the rat brain.
Test: not given
The following applies: according to U.S. Patent Application No. 2003/0032579; cited from earlier work.
Take `COc1ccc(Cc2nccc3cc(OC)c(OC)cc23)cc1OC` [papaverine]: the “dopamine level in the rat brain” value is given as “decreases”.

As a reminder, the IC50 is the midpoint of a concentration-inhibition curve.
